Like-named read-outs stand apart in the source and are kept apart here.
Key:
R. microplus = test: Acaricidal activity on R. microplus (LIT and AIT, overall statement); format: in vivo; settings: LIT 1 mM and AIT 1.5 mM
Procedure: After immersion, the fully engorged females were lightly dried with absorbent paper. […] The tubes carrying the eggs were closed with hydrophilic cotton, and were returned to the incubator chamber under the same conditions until the eggs hatched. The reproductive efficacy, as well as % control of each compound on R. microplus, was calculated according to published reports. The results were verified in two independent experiments. This assay was performed based on the method of Castro-Janer et al., 2011. […] The tubes were incubated in the same conditions as described above. The larvae were ready for testing after 14 to 21 days from egg-hatching. For the test, the compounds were diluted in DMSO, and were later resuspended in distilled water, always using 15% DMSO of the final solution volume. […] For the immersion procedure, tubes containing the larvae were placed vertically, without the cotton plug, and the larvae were taken with a brush from the top of the tube, ensuring they were viable. A cluster with a diameter of 2 mm of larvae was collected with a brush, and was later immersed in each solution, as well as in both control solutions, for 10 min. After this time, the solutions were drained, and the larvae were placed in 8.5 cm × 7.5 cm Whatman No. 1 filter papers. The filters were folded in the middle of the 8.5 cm side, and closed with 3 bulldog clips, forming packets. These packets were incubated for 24 h, under the same conditions as described previously, and then the percent of mortality was determined, considering it as the % of the control.

[1] = target: R. microplus triosephosphate isomerase (RmTIM) (Rhipicephalus microplus, UniProt A8B3A8); test: biochemical; settings: for IC50: RmTIM; for inhibition at 10 µM / inhibition at 100 µM: 1 h incubation, read-out: % Inhibition of Enzymatic Activity of RmTIM
Procedure: (§1) R. microplus triosephosphate isomerase (RmTIM) and Homo sapiens triosephosphate isomerase (HsTIM) were expressed in Escherichia coli, and purified as previously described in the literature. Protein concentration was determined by absorbance measurements at 280 nm for RmTIM (ε = 33440 M^−1cm^−1) and HsTIM (ε = 33460 M^−1cm^−1). Enzymatic activity was determined following the reaction of the conversion of glyceraldehyde-3-phosphate to dihydroxyacetone phosphate in a coupled enzyme assay using α-glycerol-phosphate dehydrogenase. The decrease in absorbance at 340 nm was recorded in a multiplate reader Varioskan™ Flash Multimode Reader (Thermo Scientific^TM, Waltham, MA, USA) at 25 °C. The reaction mixture ([…], pH 7.4) contained 100 mM triethanolamine, 10 mM EDTA, 0.2 mM NADH, 1 mM glyceraldehyde-3-phosphate, and 0.9 units of α-glycerol-phosphate dehydrogenase. The reaction was initiated by the addition of 5 ng/mL of the TIM of interest. For the inhibition studies (incubation mixture), TIM was incubated at a concentration of 5 mg/mL in a buffer of pH 7.4 containing 100 mM triethanolamine, 10 mM EDTA, and 10% DMSO at 25 °C for 1 h. The mixture also contained the compounds, dissolved in DMSO, at final concentrations of 10 and 100 μM. After 1 h, 10 μL of the incubation mixture was added to the reaction mixture, to a final volume of 100 μL in a 96-well plate. None of the molecules tested here affected the activity of α-glycerol-phosphate dehydrogenase (checked in situ on the reaction mixture inhibited, with the addition of fresh α-glycerol-phosphate dehydrogenase and running the measurement again). The IC50 value was taken as the concentration of drug needed to reduce the enzymatic activity by 50%, and was analyzed using OriginLab 8.5 Corporation, Northampton, MA, USA, sigmoidal regression (% of enzymatic activity vs. the logarithm of the compound concentration). The tests were performed in triplicate in two independent experiments.

[2] = system: J774.1 murine macrophages; test: Cytotoxicity assay on murine macrophages (MTT); format: cell-based; settings: Mus musculus; for EC50: J774.1, cytotoxicity, read-out: EC50 (µM) for Mammalian Cells; for IC50: J774.1, 48 h, read-out: IC50 (µM) Mammalian Cells
Procedure: J774.1 murine macrophages (ATCC, Rockville, MD, USA) were grown in a DMEM culture medium containing 4 mM L-glutamine, and supplemented with 10% FCS. The cells were seeded into a 96-well plate (5 × 10^4 cells in 200 µL culture medium) and incubated at 37 °C in a 5% CO2 atmosphere for 48 h, to allow cell adhesion before drug testing. Afterward, the cells were exposed for 48 h to the compounds (25–400 μM) or the vehicle (0.4% DMSO), and additional controls (cells in medium) were used in each test. Cell viability was then assessed by measuring the mitochondria-dependent reduction of MTT to formazan: for this, MTT in sterile PBS (0.2% glucose), pH 7.4, was added to the macrophages, to a final concentration of 0.1 mg/mL, and the cells were then incubated at 37 °C for 3 h. After removing the medium, the formazan crystals were dissolved in 180 μL of DMSO and 20 μL of MTT buffer (0.1 M glycine, 0.1 M NaCl, 0.5 mM EDTA, pH 10.5), and the absorbance was measured at 560 nm. The IC50 was defined as the drug concentration at which 50% of the cells were viable, relative to the control (no drug added), and was determined by analysis using OriginLab 8.5 Corporation, Northampton, MA, USA, sigmoidal regression (% of viable cells compared to the logarithm of the compound concentration). The tests were performed in triplicate in two independent experiments.

[3] = system: embryonic cell line BME26; test: Phenotypic screening on BME26 cell cultures (MTT viability); format: cell-based, R. microplus; settings: for inhibition at 100 µM: read-out: % of Growth Inhibition
Procedure: The embryonic cell line BME26 from R. microplus (Centro de Biotecnologia, Universidade Federal do Rio Grande do Sul, Porto Alegre, RS, Brazil) was grown as adherent monolayers in a complete medium, as described previously, which consisted of L-15B300 medium supplemented with 5% heat-inactivated Fetal Bovine Serum (FBS) (Gibco Co., Grand Island, NY), 10% Tryptose Phosphate Broth (TPB) (BD), penicillin (100 U/mL), streptomycin ([…], Gibco Co., Grand Island, NY, USA), and 0.1% bovine lipoprotein concentrate (ICN), (pH 7.2). The suspension of embryonic BME26 cells from R. microplus was seeded into 24-well plates (5 × 10^5 cells/well) to a final volume of 500 μL in a complete medium, and allowed to attach. After 24 h incubation at 34 °C, the extracts (100 µg/mL final concentration) and the compounds were added to the final concentrations indicated (1–100 µM), and 0.05% dimethylsulfoxide (DMSO) was used in the negative control wells. After 24 h of treatment, 50 μL of 3-(4,5-dimethylthiazol-2-yl)-2,5-diphenyltetrazolium bromide (MTT) prepared in serum-free medium (5 mg/mL) was added to each well. The media were discarded after 2 additional hours of incubation, and 1 mL of acid-isopropyl alcohol (0.15% HCl in isopropyl alcohol) was added to dissolve the formazan crystals. The mixture was transferred to 1.5 mL tubes, centrifuged at 6000× g for 15 min, and the clear supernatant was collected in new tubes for absorbance measurement at 570 nm using quartz cuvettes in a UVmini-1240 UV–vis spectrophotometer (Shimadzu, Japan). Absorbance values of the control treatment were used for normalization (100% viability). The activity was determined by analysis using OriginLab8.5® sigmoidal regression (% of viable cells compared to the logarithm of the compound concentration). The half-maximal inhibitory concentration (IC50), defined as the drug concentration at which 50% of the cells were viable relative to the control (no drug added), was used as a measurement of activity. These experiments were performed in triplicate for each compound.

[4] = system: fully engorged females of the Mozo susceptible strain of R. microplus; test: Adult Immersion Test (AIT); format: in vivo; settings: compounds 1.5 mM, 15 min immersion, 14 days
Procedure: This essay was performed based on Drummond et al., 1973, as each group of 5 fully engorged females of the Mozo susceptible strain of R. microplus was immersed in 50 mL tubes containing 10 mL of compounds at different concentrations (0.5, 1, 1.5, 2, 3.5 mM) for 15 min in four replicates. Four negative control groups were used (DMSO 10%). After immersion, the fully engorged females were lightly dried with absorbent paper. They were then placed in 100 mm disposable Petri dishes with their respective identification, and immediately incubated at 27 °C in an atmosphere with relative humidity (RH) of 85-90% for 14 days. […] The tubes carrying the eggs were closed with hydrophilic cotton, and were returned to the incubator chamber under the same conditions until the eggs hatched. The reproductive efficacy, as well as % control of each compound on R. microplus, was calculated according to published reports. The results were verified in two independent experiments.

[5] = target: T1, Homo sapiens triosephosphate isomerase (HsTIM) (Homo sapiens, UniProt P60174); test: Enzymatic activity of TIM, coupled enzyme assay; format: biochemical
T1 construct: made in house; host or cells: Escherichia coli
Procedure: as §1

[6] = BME26 cells, 24 h, MTT, read-out: IC50
[7] = synthetic compounds at 100 μM, BME26, 24 h

R. microplus triosephosphate isomerase (RmTIM), sequence (A8B3A8 entry or part of it): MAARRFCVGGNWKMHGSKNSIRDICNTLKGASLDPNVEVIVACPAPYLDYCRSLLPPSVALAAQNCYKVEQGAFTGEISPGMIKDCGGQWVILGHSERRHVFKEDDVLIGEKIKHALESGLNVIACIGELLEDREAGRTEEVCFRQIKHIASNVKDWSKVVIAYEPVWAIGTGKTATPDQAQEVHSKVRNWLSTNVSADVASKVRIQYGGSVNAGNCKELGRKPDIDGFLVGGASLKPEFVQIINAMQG
T1 sequence (P60174 whole entry): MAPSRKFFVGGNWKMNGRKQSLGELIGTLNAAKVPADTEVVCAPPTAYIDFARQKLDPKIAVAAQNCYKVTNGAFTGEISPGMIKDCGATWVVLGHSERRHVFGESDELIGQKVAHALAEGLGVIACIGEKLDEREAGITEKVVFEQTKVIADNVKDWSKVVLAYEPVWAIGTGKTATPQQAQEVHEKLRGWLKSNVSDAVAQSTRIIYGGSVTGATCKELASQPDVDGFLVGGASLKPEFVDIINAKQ

Row | SMILES | acaricidal activity (in words) (R. microplus) | IC50 [2] [µM] | IC50 [3, 6] [µM] | inhibition at 100 µM [3, 7] [%] | further results
1 | FC(F)(F)C1=CSC(Nc2ccccc2)N1Cc1ccco1 (centres unmarked) [compound 1385] | did not show reproducible acaricidal activity |  |  |  | IC50 ([1]; read-out: IC50): < 10 µM; inhibition at 10 µM [1]: 89%; EC50 [2]: > 50 µM
2 | C=CCn1c(-c2ccc(Cl)cc2)cs\c1=N/N=C/C=C/c1ccco1 [compound 266] | acaricidal potential against R. microplus similar to Amitraz | > 50 | > 100 | 77 | 
3 | CN=C1C=CC(=C(c2ccc(N(C)C)cc2)c2ccc(N(C)C)cc2)C=C1 [compound 1386] | did not show reproducible acaricidal activity |  |  |  | IC50 ([1]; read-out: IC50): < 10 µM; inhibition at 10 µM [1]: 100%
4 | COc1ccc(/C=C2\CCCC3C2=NN(c2ccccn2)C3c2ccc(OC)cc2)cc1 (centres unmarked) [Dm97] |  |  |  |  | inhibition at 100 µM [1]: 0%
5 | C(=C\c1ccco1)/C=N/N1CCN(C/C=C/c2ccccc2)CC1 [compound 912] |  | > 50 | > 50 | 52 | % of Mortality AIT [4]: 30 ± 8%
6 | COc1cc(/C=C/C(=O)CC(=O)/C=C/c2ccc(O)c(OC)c2)ccc1O [compound 906, curcumin] | acaricidal potential against R. microplus similar to Amitraz | < 25 | 24 ± 3 | 95 | % of Mortality AIT [4]: 60 ± 8%
7 | Cc1ccc(/C=C/C=N/N2CCN(C/C=C/c3ccccc3)CC2)o1 [compound 903] |  | > 50 | > 50 | 75 | % of Mortality AIT [4]: 10 ± 1%
8 | O=C1C(Cl)=C(Oc2cccc3ccccc23)C(=O)c2ccccc21 [compound 1408] |  |  |  |  | IC50 ([1]; read-out: IC50): > 50 µM; inhibition at 100 µM [1]: 72%
9 | O=C(/C=C/c1ccco1)/C=C/c1ccco1 [compound 795] | acaricidal potential | > 50 | 20 ± 3 | 80 | % of Mortality AIT [4]: 70 ± 7%
10 | [O-][n+]1c2ccc(O)cc2[n+]([O-])c2cc(Cl)c(Cl)cc21 [compound 183] |  | < 25 |  | 62 | 
11 | CC(/C=C/C(=O)/C=C/C(C)=C/c1ccco1)=C\c1ccco1 [compound 809] |  | > 50 | > 100 | 50 | 
12 | O=C(N/N=C/C=C/c1ccco1)c1cnn(-c2ccccc2)c1 [compound 1366] |  |  |  |  | inhibition at 100 µM [1]: 38%
13 | Nc1ccc2c(c1)[n+]([O-])c1cc(Br)ccc1[n+]2[O-] [compound 181] |  | < 25 |  | 90 | 
14 | O=c1cc(O)n(Cc2ccccc2)c(=S)n1Cc1ccccc1 [compound 1088] |  |  |  |  | IC50 ([1]; read-out: IC50): > 50 µM
15 | COc1ccc(/C=C/c2ccc3no[n+]([O-])c3c2)cc1 [compound 1404] | did not show reproducible acaricidal activity |  |  |  | IC50 ([1]; read-out: IC50): < 10 µM; inhibition at 10 µM [1]: 100%; EC50 [2]: > 50 µM
16 | O=C(Oc1ccccc1)N1CCN(C(=O)Oc2ccccc2)CC1 [compound 715] |  |  |  |  | IC50 ([3]; 24 h): > 50 µM; inhibition at 100 µM ([3]; 24 h): 64%
17 | C=CCn1c(-c2ccc(Cl)cc2)cs/c1=N/N=C/c1cccs1 [compound 133] |  | > 50 | > 50 | 71 | 
18 | CC(/C=N/NC(=[Se])NCCN1CCOCC1)=C\c1ccco1 [compound 1378] |  |  |  |  | inhibition at 10 µM [5]: 0%; IC50 ([1]; IC50 (µM)): 30 µM; inhibition at 100 µM [1]: 77%

Reference: article PMC9781803, “Phenotypic and Target-Directed Screening Yields New Acaricidal Alternatives for the Control of Ticks” (Molecules, 2022)
